± gives the expanded uncertainty stated by the source.
How the values were obtained:
[1] = molar heat capacity at constant pressure; conditions: Liquid, metal-bellows calorimeter
[2] = Liquid, Pycnometric method

Compound: COC [dimethyl ether]
- molar heat capacity at constant pressure ([1]; 310 K, 2000 kPa): 123.92 ± 6 J/K/mol
- molar heat capacity at constant pressure ([1]; 310 K, 3000 kPa): 122.08 ± 6 J/K/mol
- molar heat capacity at constant pressure ([1]; 310 K, 4000 kPa): 121.62 ± 6 J/K/mol
- molar heat capacity at constant pressure ([1]; 310 K, 5000 kPa): 121.16 ± 6 J/K/mol
- molar heat capacity at constant pressure ([1]; 320 K, 2000 kPa): 127.61 ± 6.4 J/K/mol
- molar heat capacity at constant pressure ([1]; 320 K, 3000 kPa): 125.77 ± 6.4 J/K/mol
- molar heat capacity at constant pressure ([1]; 320 K, 4000 kPa): 124.85 ± 6.4 J/K/mol
- molar heat capacity at constant pressure ([1]; 320 K, 5000 kPa): 124.85 ± 6.4 J/K/mol
- molar heat capacity at constant pressure ([1]; 330 K, 2000 kPa): 131.3 ± 6.4 J/K/mol
- molar heat capacity at constant pressure ([1]; 330 K, 3000 kPa): 128.53 ± 6.4 J/K/mol
- molar heat capacity at constant pressure ([1]; 330 K, 4000 kPa): 128.07 ± 6.4 J/K/mol
- molar heat capacity at constant pressure ([1]; 330 K, 5000 kPa): 127.15 ± 6.4 J/K/mol
- molar heat capacity at constant pressure ([1]; 340 K, 2000 kPa): 137.74 ± 6.9 J/K/mol
- molar heat capacity at constant pressure ([1]; 340 K, 3000 kPa): 134.98 ± 6.9 J/K/mol
- molar heat capacity at constant pressure ([1]; 340 K, 4000 kPa): 132.22 ± 6.4 J/K/mol
- molar heat capacity at constant pressure ([1]; 340 K, 5000 kPa): 129.45 ± 6.4 J/K/mol
- molar heat capacity at constant pressure ([1]; 350 K, 3000 kPa): 140.51 ± 6.9 J/K/mol
- molar heat capacity at constant pressure ([1]; 350 K, 4000 kPa): 137.28 ± 6.9 J/K/mol
- molar heat capacity at constant pressure ([1]; 350 K, 5000 kPa): 132.68 ± 6.4 J/K/mol
- molar heat capacity at constant pressure ([1]; 360 K, 3000 kPa): 153.87 ± 7.8 J/K/mol
- molar heat capacity at constant pressure ([1]; 360 K, 4000 kPa): 145.12 ± 7.4 J/K/mol
- molar heat capacity at constant pressure ([1]; 360 K, 5000 kPa): 136.36 ± 6.9 J/K/mol
- mass density ([2]; 310 K, 2000 kPa): 643.5 ± 1.8 kg/m3
- mass density ([2]; 310 K, 3000 kPa): 646 ± 1.8 kg/m3
- mass density ([2]; 310 K, 4000 kPa): 648 ± 1.8 kg/m3
- mass density ([2]; 310 K, 5000 kPa): 650.2 ± 1.7 kg/m3
- mass density ([2]; 320 K, 2000 kPa): 626 ± 1.8 kg/m3
- mass density ([2]; 320 K, 3000 kPa): 628.7 ± 1.8 kg/m3
- mass density ([2]; 320 K, 4000 kPa): 631.1 ± 1.8 kg/m3
- mass density ([2]; 320 K, 5000 kPa): 634.3 ± 1.7 kg/m3
- mass density ([2]; 330 K, 2000 kPa): 606.5 ± 1.9 kg/m3
- mass density ([2]; 330 K, 3000 kPa): 609.8 ± 1.9 kg/m3
- mass density ([2]; 330 K, 4000 kPa): 613.4 ± 1.8 kg/m3
- mass density ([2]; 330 K, 5000 kPa): 616.5 ± 1.8 kg/m3
- mass density ([2]; 340 K, 2000 kPa): 585.3 ± 1.9 kg/m3
- mass density ([2]; 340 K, 3000 kPa): 589.6 ± 1.9 kg/m3
- mass density ([2]; 340 K, 4000 kPa): 593.6 ± 1.9 kg/m3
- mass density ([2]; 340 K, 5000 kPa): 597.4 ± 1.9 kg/m3
- mass density ([2]; 350 K, 3000 kPa): 566.8 ± 2.1 kg/m3
- mass density ([2]; 350 K, 4000 kPa): 572 ± 2 kg/m3
- mass density ([2]; 350 K, 5000 kPa): 576.7 ± 1.9 kg/m3
- mass density ([2]; 360 K, 3000 kPa): 540.2 ± 2.2 kg/m3
- mass density ([2]; 360 K, 4000 kPa): 547.4 ± 2.1 kg/m3
- mass density ([2]; 360 K, 5000 kPa): 553.5 ± 2 kg/m3

From the NIST ThermoML archive (doi:10.1021/je900922x)
